Tested on: normotensive dogs
Test: Ocular surface hyperemia in normotensive dogs
Format: in vivo
Conditions: once daily for 5 days
Experimental: U.S. Pat. No. 7,091,231 describes the methods used for these in vivo tests.
5-(3-{(S)-1-[4-(1-Hydroxyhexyl)-phenyl]-5-oxo-pyrrolidin-2-yl}-propyl)-thiophene-2-carboxylic acid 2-hydroxyethyl ester (1) was tested in normotensive dogs at 0.003%, dosing once daily for 5 days. The maximum intraocular pressure (IOP) decrease from baseline was 4.4 mmHg (32%) at 30 h; the maximum ocular surface hyperemia (OSH) score was 0.9 at 30 h. This compound was also tested in laser-induced hypertensive monkeys, using one single day dose. At 0.003%, the maximum IOP decrease from baseline was 13.4 mmHg (38%) at 24 h. Compound 1 was also tested in normotensive dogs at 0.001%, dosing once daily for 5 days. The maximum intraocular pressure (IOP) decrease from baseline was 3.75 mmHg (23%) at 76 h; the maximum ocular surface hyperemia (OSH) score was 1.1 at 74 h. Compound 1 was also tested in laser-induced hypertensive monkeys, using one single day dose. At 0.001%, the maximum IOP decrease from baseline was 12.7 mmHg (31%) at 24 h.
5-(3-{(S)-1-[4-(1-Hydroxyhexyl)-phenyl]-5-oxo-pyrrolidin-2-yl}-propyl)-thiophene-2-carboxylic acid 2-morpholin-4-yl-ethyl ester (2) was tested in normotensive dogs at 0.003%, dosing once daily for 5 days. The maximum intraocular pressure (IOP) decrease from baseline was 5.9 mmHg (36%) at 52 h; the maximum ocular surface hyperemia (OSH) score was 1.1 at 50 h. This compound was also tested in laser-induced hypertensive monkeys, using one single day dose. At 0.003%, the maximum IOP decrease from baseline was 20 mmHg (53%) at 24 h.

[1] = 0.003%, maximum at 30 h (1), 50 h (2)

maximum ocular surface hyperemia (OSH) score (0.001%, maximum at 74 h) | maximum ocular surface hyperemia (OSH) score [1] | SMILES
1.1 | 0.9 | CCCCCC(O)c1ccc(N2C(=O)CC[C@@H]2CCCc2ccc(C(=O)OCCO)s2)cc1 (single isomer, unassigned) [Compound 1]
– | 1.1 | CCCCCC(O)c1ccc(N2C(=O)CC[C@@H]2CCCc2ccc(C(=O)OCCN3CCOCC3)s2)cc1 (single isomer, unassigned) [Compound 2]

From patent US7960381B2, “Substituted gamma lactams as therapeutic agents” (Allergan, Inc., priority 2007, dated 2011)
